Here are results for two compounds from patent publication US11760986B2, “Evolution of proteases” (President and Fellows of Harvard College, priority 2014, dated 2023).

In one assay the target is T1, wild-type HCV protease (Hepatitis C virus genotype 1a, UniProt P27958, L1039E/L1040E/I1043Q/I1044E/L1047Q/C1073S/C1078L/I1098T/Q1106K/P1112Q/L1179I/C1185S/N1200S, form not given).
T1 construct: 6xHis-TEVcutsite-HCV protease 2610 . .; fused on or other part: N-terminal Met-6xHis-TEV site, then an NS4A cofactor peptide ([…], about NS4A 21-33 with C22S and V30N); The peptide is fused in front of NS3 residue 4; The helicase domain is absent; the chain ends at NS3 182
In words: In vitro HCV protease inhibition assay with internally quenched fluorescent substrate (HCV RET Substrate 1, Anaspec). The note with it: 40 nM protease, 7.5 μM substrate, 30° C., IC50±standard deviation. The class given is biochemical. Here is the method: Purification and in vitro assays of evolved HCV variants. HCV protease variants were sub-cloned by Gibson assembly out of the phage genome and into the previously mentioned EP. EPs were transformed into NEB BL21 DE3 chemically competent cells. Starter cultures were grown to saturation, and 2 mL was used to inoculate 500 mL LB. At OD600=0.6, cultures were transferred to 20° C. and induced with 0.5% arabinose for 6 h. Cells were harvested by centrifugation at 5,000 g for 10 m, and resuspended in lysis/bind buffer (50 mM Tris-HCl pH 8.0, 500 mM NaCl, 10% glycerol, 5 mM imidazole). Cells were lysed by sonication for a total of 2 m, and then centrifuged for 20 m at 18,000 g to clarify the lysate. Supernatant was flowed through 0.2 mL His-pur nickel resin spin columns that were equilibrated with binding buffer (Pierce-Thermo). […] Protein concentrations were determined by UV280 on a Nanodrop machine and calculated using an extinction coefficient of 19,000 cm^−1 M^−1 and a molecular weight of 23 kDa.
In vitro assays were performed using the commercial HCV RET Substrate 1 (Anaspec), an internally quenched probe that fluoresces upon proteolytic cleavage, according to the manufacturer's instructions. […] Assays were performed in triplicate, and initial reaction velocities were calculated and normalized to controls without inhibitor. […]

For assay [1], the system named is HCV protease on the HCV PA-RNAP. The note with it: host cells incubated with inhibitor 90 min, then HCV protease phage, luminescence after 3 h.
Protocol: Inhibition of PA-RNAP response in host E. coli cells. […] After 3 h of incubation at 37° C., the luminescence of each culture was measured on a Tecan Infinite Pro plate reader and normalized to OD600. In the absence of inhibitor, phage-encoded protease will activate the PA-RNAP leading to robust production of luciferase. Relative dose responses to inhibitors compared to control cells without drug were measured in triplicate.
The target in assay [2] is T2, HCV protease D168Y (Hepatitis C virus genotype 1a, UniProt P27958, C1073S/C1078L/C1185S/D1194Y/I1043Q/I1044E/I1098T/L1039E/L1040E/L1047Q/L1179I/N1200S/P1112Q/Q1106K/T1100M/T1173A).
T2 construct: 6xHis (N); TEV cleavage site (N); NS4a cofactor peptide (fused in the construct, before NS3) (N); made in house; host or cells: E. coli NEB BL21 DE3
The assay can be described thus: biochemical. Here is the method:
(§1) Purification and in vitro assays of evolved HCV variants. HCV protease variants were sub-cloned by Gibson assembly out of the phage genome and into the previously mentioned EP. EPs were transformed into NEB BL21 DE3 chemically competent cells. Starter cultures were grown to saturation, and 2 mL was used to inoculate 500 mL LB. At OD600=0.6, cultures were transferred to 20° C. and induced with 0.5% arabinose for 6 h. Cells were harvested by centrifugation at 5,000 g for 10 m, and resuspended in lysis/bind buffer (50 mM Tris-HCl pH 8.0, 500 mM NaCl, 10% glycerol, 5 mM imidazole). Cells were lysed by sonication for a total of 2 m, and then centrifuged for 20 m at 18,000 g to clarify the lysate. Supernatant was flowed through 0.2 mL His-pur nickel resin spin columns that were equilibrated with binding buffer (Pierce-Thermo). Resin was washed with 4 column volumes of wash buffer (50 mM Tris-HCl pH 8.0, 500 mM NaCl, 10% glycerol, 20 mM imidazole). HCV protease was eluted in 4 column volumes of 50 mM Tris-HCl pH 8.0, 500 mM NaCl, 10% glycerol, 200 mM imidazole. Samples were further purified by size exclusion chromatography on a SuperDex 75 10/300 GL column (GE Healthcare). Size exclusion was performed in 50 mM Tris-HCl pH 8.0, 100 mM NaCl, 10% glycerol, 1 mM DTT. Protein concentrations were determined by UV280 on a Nanodrop machine and calculated using an extinction coefficient of 19,000 cm^−1 M^−1 and a molecular weight of 23 kDa.
(§2) In vitro assays were performed using the commercial HCV RET Substrate 1 (Anaspec), an internally quenched probe that fluoresces upon proteolytic cleavage, according to the manufacturer's instructions. Protease and inhibitors were incubated in assay buffer at room temperature for 5 m prior to addition of substrate. […] The assay buffer contained 50 mM Tris HCl pH 8.0, 100 mM NaCl, 20% glycerol, 5 mM DTT. Assays were performed in triplicate, and initial reaction velocities were calculated and normalized to controls without inhibitor. The data was fit to the Hill Equation using Igor Pro with base and max parameters fixed at one and zero respectively.

Assay [3] relates to HCV protease D168Y. The assay can be described thus: biochemical. Further details: species or system hepatitis C virus. The note with it: D168Y versus wild-type HCV protease. Here is the method:
as §1, §2

The test system of assay [4] is HCV protease D168E. The class given is biochemical, hepatitis C virus. The note with it: D168E versus wild-type HCV protease. Here is the method:
as §1, §2

For assay [5], the target named is T3, HCV protease D168E (Hepatitis C virus genotype 1a, UniProt P27958, L1039E/L1040E/I1043Q/I1044E/L1047Q/C1073S/C1078L/I1098T/Q1106K/P1112Q/L1179I/C1185S/D1194E/N1200S, form not given).
T3 construct: 6xHis-TEVcutsite-HCV protease 2610 . .; fused on or other part: N-terminal Met-6xHis-TEV site, then an NS4A cofactor peptide ([…], about NS4A 21-33 with C22S and V30N); The peptide is fused in front of NS3 residue 4; The helicase domain is absent; the chain ends at NS3 182
The class given is biochemical. The note with it: HCV protease D168E; 40 nM protease, 7.5 μM substrate, 30° C.; IC50±standard deviation. On the procedure:
as §1, §2

Another assay deals with HCV protease (Hepatitis C virus genotype 1a, UniProt P27958). The note with it: literature value (refs 35, 36); cited from earlier work.

Usually IC50 stands for the concentration needed to halve the response being measured. On to `CC(C)(C)OC(=O)N[C@H]1CCCCC/C=C\[C@@H]2C[C@@]2(C(=O)NS(=O)(=O)C2CC2)NC(=O)[C@@H]2C[C@@H](OC(=O)N3Cc4cccc(F)c4C3)CN2C1=O` [danoprevir], for which the IC50 against wild-type HCV protease was 1.3 ± 0.1 nM; against HCV protease D168Y [2], 34.4 ± 2.8 nM; on HCV protease D168E [5] it was 38.9 ± 2.4 nM; on HCV protease it was approximately 0.3 nM. The “inhibition of cellular gene expression arising from the activity of HCV protease on the HCV PA-RNAP” value in assay [1] was “in a dose-dependent manner”. The “increase of the IC50 by the mutation” value with HCV protease D168Y [3] and in the assay with HCV protease D168E [4] was approximately 30 fold in each case.
As for `C=C[C@@H]1C[C@]1(NC(=O)[C@@H]1C[C@@H](Oc2ncc(OC)c3ccc(Cl)cc23)CN1C(=O)[C@@H](NC(=O)OC(C)(C)C)C(C)(C)C)C(=O)NS(=O)(=O)C1CC1` [asunaprevir], the “inhibition of cellular gene expression arising from the activity of HCV protease on the HCV PA-RNAP” value in assay [1] was “in a dose-dependent manner”. Also, the “increase of the IC50 by the mutation” value is on record as 30 fold in the assay on HCV protease D168Y [3] and approximately 10 fold in the assay with HCV protease D168E [4].
